According to patent US12268694B2, “Combination pharmaceutical agents as RSV inhibitors” (Enanta Pharmaceuticals, Inc., priority 2017, dated 2025):
Read-outs that look alike come from different tables or passages of the source.

Key:
HEp-2 cells = assay: Cytotoxicity in parallel to the RSV-A assay (no virus), ATPlite readout; assay type: cell-based, human
Protocol: Following extensive parameter testing, the final assay is run as follows: HEp-2 cells are seeded into the inner 60 wells of a 96-well plate at 8,000 cells per well in a volume of 50 μL using Growth Media (DMEM without phenol red, 1% L-Glut, 1% Penn/Strep, 1% nonessential amino acids, 10% heat-inactivated FBS). 2-fold serial dilutions of control and test compounds are added to the wells in duplicate in a total volume of 25 μL. Viral stock is then added to the wells at a multiplicity of infection (MOI) of 0.1 in a volume of 25 μL, bringing the total volume of each well to 100 μL. The MOI is calculated using the PFU/mL, or TCID50 if unavailable. Each 96-well plate has a control column of 6 wells with cells and virus but no compound (negative control, max CPE), a column with cells but no compound or virus (positive control, minimum CPE), and a column with no cells or virus or compound (background plate/reagent control). The control wells with cells but no virus are given an additional 25 μL of growth media containing an equal quantity of sucrose as those wells receiving the viral stock in order to keep consistent in media and volume conditions. The outer wells of the plate are filled with 125 μL of moat media (DMEM, 1% Penn/Strep) to act as a thermal and evaporative moat around the test wells. Following a 5-day incubation period, the plates are read using ATPlite (50 μL added per well), which quantifies the amount of ATP (a measure of cell health) present in each well. Assay plates are read using the Envision luminometer. In parallel, cytotoxicity is examined on an additional 96-well plate treated in an identical manner, but substituting the 25 μL of viral stock for 25 μL of growth media. […] EC50 ranges are as follows: A <0.4 μM; B 0.4-0.8 μM; C >0.8 μM and CC50 ranges are as follows: A >50 μM; B 10-50 μM; C <10 μM.

[1] = test system: genotype A, "Long" strain RSV; assay: RSV-A assay: CPE protection in HEp-2 cells, ATPlite readout; assay type: cell-based, human respiratory syncytial virus
In short: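 HEp-2 cells (8,000/well) with 2-fold compound dilutions in duplicate, infected with Long-strain RSV at MOI 0.1 and incubated 5 days. Cell ATP measured by ATPlite luminescence to give EC50; uninfected parallel plate gives CC50.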

[2] = human respiratory syncytial virus, HEp-2, read-out: Human RSV-A (“Long” strain) EC50

SMILES	CC50 (HEp-2 cells) [nM]	EC50 [1, 2] [nM]	EC50 ([1]; HEp-2 cells, RSV-A Long strain, ATPlite readout, read-out: Human RSV-A (“Long” strain) EC50) [nM]
CC(C)Oc1cccc(-c2nnc(NC3N=C(c4ccccc4)c4ccccc4NC3=O)o2)c1 (stereo not drawn) [Example 15]	> 50000	400 to 800	–
O=C1Nc2ccccc2C(c2ccccc2)=NC1Nc1nnc(-c2ccc(OC(F)(F)F)cc2)o1 (stereo not drawn) [Example 30]	> 50000	> 800	–
COc1ccc(-c2nnc(NC3N=C(c4ccccc4)c4ccccc4NC3=O)o2)cn1 (stereo not drawn) [Example 54]	> 50000	< 400	–
O=C1Nc2ccccc2C(c2ccccc2)=NC1Nc1nnc(C2CCOCC2)o1 (stereo not drawn) [Example 21]	> 50000	> 800	–
COc1ccc(-c2nnc(NC3N=C(c4ccccc4)c4ccccc4NC3=O)o2)cc1 (stereo not drawn) [Example 8]	> 50000	> 800	–
N#Cc1ccc(-c2nnc(NC3N=C(c4ccccc4)c4ccccc4NC3=O)o2)cc1F (stereo not drawn) [Example 33]	> 50000	> 800	–
O=C1Nc2ccccc2C(c2ccccc2)=NC1Nc1nnc(-c2cccc3ccccc23)o1 (stereo not drawn) [Example 17]	> 50000	> 800	–
Cn1cnc(-c2nnc(NC3N=C(c4ccccc4)c4ccccc4NC3=O)o2)c1 (stereo not drawn) [Example 68]	> 50000	> 800	–
O=C1Nc2ccccc2C(c2ccccc2)=NC1Nc1nnc(-c2ccncc2)s1 (stereo not drawn) [Example 83]	> 50000	> 800	–
COCc1ccc(-c2nnc(NC3N=C(c4ccccc4)c4ccccc4NC3=O)o2)o1 (stereo not drawn) [Example 72]	> 50000	> 800	–
NS(=O)(=O)c1ccc(-c2nnc(NC3N=C(c4ccccc4)c4ccccc4NC3=O)o2)cc1 (stereo not drawn) [Example 31]	> 50000	400 to 800	–
N#Cc1cc(-c2nnc(NC3N=C(c4ccccc4)c4ccccc4NC3=O)o2)ccc1F (stereo not drawn) [Example 32]	> 50000	400 to 800	–
O=C1Nc2ccccc2C(c2ccccc2)=NC1Nc1nnc(-c2cccnc2)o1 (stereo not drawn) [Example 37]	> 50000	> 800	–
O=C1Nc2ccccc2C(c2ccccc2)=NC1Nc1nnc(Cc2ccccc2)o1 (stereo not drawn) [Example 22]	> 50000	> 800	–
COCc1cccc(-c2nnc(NC3N=C(c4ccccc4)c4ccccc4NC3=O)o2)n1 (stereo not drawn) [Example 64]	> 50000	> 800	–
O=C1Nc2ccccc2C(c2ccccc2)=N[C@@H]1Nc1nnc(-c2nc(C(F)(F)C(F)(F)F)sc2N2CCOCC2)o1 [Example 454]	–	< 400	–
CN1CCN(c2cc(C(F)(F)F)cnc2-c2nnc(N[C@H]3N=C(c4ccccc4)c4ccccc4NC3=O)o2)CC1=O [Example 296]	–	> 800	–
O=C1Nc2ccccc2C(c2ccccc2)=N[C@@H]1Nc1nnc(-c2ncc(C(F)(F)F)cc2N[C@H]2CCC[C@H]2O)o1 [Example 422]	–	400 to 800	–
COC(C)(C)CNc1cc(C(F)(F)F)cnc1-c1nnc(N[C@H]2N=C(c3ccccc3)c3ccccc3NC2=O)o1 [Example 416]	–	> 800	–
O=C1Nc2c(F)cccc2C(c2ccccc2)=NC1Nc1nnc(-c2ccc(N3CCOCC3)cc2)o1 (stereo not drawn) [Example 356]	–	400 to 800	–

SMILES	CC50 (HEp-2 cells) [nM]	EC50 [1, 2] [nM]	EC50 ([1]; HEp-2 cells, RSV-A Long strain, ATPlite readout, read-out: Human RSV-A (“Long” strain) EC50) [nM]
N#Cc1c[nH]c2cc(-c3nnc(N[C@H]4N=C(c5ccccc5)c5ccccc5NC4=O)o3)ccc12 [Example 291]	–	> 800	–
O=C1Nc2ccccc2C(c2ccccc2)=NC1Nc1nnc(-c2ccc(N3CCOCC3)nc2)o1 (stereo not drawn) [Example 115]	–	< 400	–
N#Cc1ccc(-c2nnc(N[C@H]3N=C(c4ccccc4)c4ccccc4NC3=O)o2)c(N2C3CCC2COC3)c1 [Example 289]	–	< 400	–
O=C1Nc2ccccc2C(c2ccccc2)=N[C@@H]1Nc1nnc(-c2ncc(C(F)(F)F)cc2N2CCOc3ccccc32)o1 [Example 468]	–	> 800	–
Cn1ncc(-c2nnc(N[C@H]3N=C(c4ccccc4)c4ccccc4NC3=O)o2)c1N1CCOCC1 [Example 177]	–	> 800	–
N#CC1CN(c2ncccc2-c2nnc(NC3N=C(c4ccccc4)c4ccccc4NC3=O)o2)C1 (stereo not drawn) [Example 274]	–	> 800	–
O=C1Nc2ccccc2C(c2ccccc2)=N[C@@H]1Nc1nnc(-c2ncc(C(F)(F)F)cc2NC[C@H]2CCCO2)o1 [Example 420]	–	< 400	–
N#Cc1ccc(-c2nnc(N[C@H]3N=C(c4ccccc4)c4ccccc4NC3=O)o2)c(N2CC3CCC(C2)O3)c1 [Example 281]	–	< 400	–
O=C1Nc2ccccc2C(c2ccccc2)=NC1Nc1nnc(-c2ccc(NC3CCCCC3)cc2)o1 (stereo not drawn) [Example 116]	–	> 800	–
Cc1ccc(-c2nnc(N[C@H]3N=C(c4ccccc4)c4ccccc4NC3=O)o2)c(N2CCOC[C@H]2C)n1 [Example 286]	–	< 400	–
O=C1Nc2ccccc2C(c2ccccc2)=NC1Nc1nnc(-c2ccc(-n3ccnc3)nc2)o1 (stereo not drawn) [Example 232]	–	> 800	–
O=C1Nc2ccccc2C(c2ccccc2)=NC1Nc1nnc(C2CCCC2)o1 (stereo not drawn) [Example 197]	–	> 800	–
O=C1Nc2ccccc2C(c2ccccc2)=N[C@@H]1Nc1nnc(-c2sc3ncccc3c2N2CCOCC2)o1 [Example 180]	–	< 400	–
C[C@@H]1COCCN1c1cc(C(F)(F)F)cnc1-c1nnc(N[C@H]2N=C(c3ccccc3)c3ccccc3NC2=O)o1 [Example 294]	–	< 400	–
O=C1Nc2ccccc2C(c2ccccc2)=N[C@@H]1Nc1nnc(-c2ncc(F)cc2N2CC3CCC(C2)O3)o1 [Example 299]	–	< 400	–
N#Cc1ccc(-c2nnc(N[C@H]3N=C(c4ccccc4)c4ccccc4NC3=O)o2)c(N2CCOCC2)c1 [Example 157]	–	< 400	–
O=C1Nc2ccccc2C(c2ccccc2)=NC1Nc1noc(-c2ccccc2)n1 (stereo not drawn) [Example 91]	–	> 800	–
Cn1cc(-c2cc(C#N)ccc2-c2nnc(N[C@H]3N=C(c4ccccc4)c4ccccc4NC3=O)o2)ccc1=O [Example 315]	–	> 800	–
N#CC1CCN(c2ncccc2-c2nnc(NC3N=C(c4ccccc4)c4ccccc4NC3=O)o2)CC1 (stereo not drawn) [Example 260]	–	> 800	–
COCCn1cc(-c2nnc(N[C@H]3N=C(c4ccccc4)c4ccccc4NC3=O)o2)c(N2CCOCC2)n1 [Example 402]	–	< 400	–

SMILES	CC50 (HEp-2 cells) [nM]	EC50 [1, 2] [nM]	EC50 ([1]; HEp-2 cells, RSV-A Long strain, ATPlite readout, read-out: Human RSV-A (“Long” strain) EC50) [nM]
O=C1Nc2ccccc2C(c2ccccc2)=N[C@@H]1Nc1nnc(-c2sc(Br)cc2N2CCOCC2)o1 [Example 182]	–	< 400	–
O=C1Nc2ccccc2C(c2ccccc2)=N[C@@H]1Nc1nnc(-c2ncc(C(F)(F)F)cc2NC[C@@H]2CCCO2)o1 [Example 419]	–	400 to 800	–
Cn1cc(N2CCOCC2)c(-c2nnc(N[C@H]3N=C(c4ccccc4)c4ccccc4NC3=O)o2)n1 [Example 164]	–	< 400	–
C#Cc1cnc(-c2nnc(N[C@H]3N=C(c4ccccc4)c4ccccc4NC3=O)o2)c(N2CCOCC2)c1 [Example 311]	–	< 400	–
O=C1Nc2ccccc2C(c2ccccc2)=NC1Nc1nnc([C@@H]2CCCN2C2CCNCC2)o1 (stereo partly drawn) [Example 227]	–	> 800	–
O=C1Nc2ccccc2C(c2ccccc2)=N[C@@H]1Nc1nnc(-c2nc(-c3ccc(F)cc3)sc2N2CCOCC2)o1 [Example 428]	–	< 400	–
O=C1Nc2ccccc2C(c2ccccc2)=NC1Nc1nnc(-c2ncc(N3CCOCC3)cc2Cl)o1 (stereo not drawn) [Example 135]	–	> 800	–
CS(=O)(=O)Cc1nnc(NC2N=C(c3ccccc3)c3ccccc3NC2=O)o1 (stereo not drawn) [Example 194]	–	> 800	–
O=C1Nc2ccccc2C(c2ccccc2)=N[C@@H]1Nc1nnc(-c2nc3ccccc3nc2N2CCOCC2)o1 [Example 433]	–	< 400	–
O=C1Nc2ccccc2C(c2ccccc2)=N[C@@H]1Nc1nnc(-c2nnsc2N2CCOCC2)o1 [Example 292]	–	< 400	–
O=C1Nc2ccccc2C(c2ccccc2)=NC1Nc1cc(-c2ccccc2)cnn1 (stereo not drawn) [Example 462]	–	> 800	–
N#Cc1cnc(-c2nnc(N[C@H]3N=C(c4ccccc4)c4cccc(F)c4NC3=O)o2)c(N2CCOCC2)c1 [Example 361]	–	< 400	–
O=C1Nc2ccccc2C(c2ccccc2)=N[C@@H]1Nc1nnc(-c2cn(CC3CC3)nc2N2CCOCC2)o1 [Example 447]	–	–	400 to 800
COC[C@@H]1CCCN1c1sc(C(F)(F)F)nc1-c1nnc(N[C@H]2N=C(c3ccccc3)c3ccccc3NC2=O)o1 [Example 457]	–	> 800	–
O=C1Nc2ccccc2C(c2ccccc2)=NC1Nc1nnc(-c2ccc(-n3ccnc3)cc2)o1 (stereo not drawn) [Example 231]	–	< 400	–
O=C1Nc2ccccc2C(c2ccccc2)=NC1Nc1nnc(-c2cccnc2N2CCC(O)CC2)o1 (stereo not drawn) [Example 255]	–	> 800	–
Cc1cc(-c2nnc(N[C@H]3N=C(c4ccccc4)c4ccccc4NC3=O)o2)c(N2CCOCC2)s1 [Example 330]	–	< 400	–
COCCOc1ccccc1-c1nnc(NC2N=C(c3ccccc3)c3ccccc3NC2=O)o1 (stereo not drawn) [Example 229]	–	> 800	–
O=C1Nc2ccccc2C(c2ccccc2)=N[C@@H]1Nc1nnc(-c2cn(-c3ccccn3)nc2N2CCOCC2)o1 [Example 431]	–	< 400	–
N#Cc1ccc(-c2nnc(NC3N=C(c4ccccc4)c4ccccc4NC3=O)o2)s1 (stereo not drawn) [Example 183]	–	< 400	–
